Assays:
[1] = system: wt MEFs; assay: Cellular ROS levels by flow cytometry in wt MEFs; assay type: cell-based, mouse
Experimental: (§1) MEFs from wt and TR4 KO were treated with 200 μM H2O2 for 30 min in the presence/absence of 100 nM of α-tocopherol, and the cellular ROS levels were then measured by flow cytometric analysis. The relative ROS levels were calculated by comparing with untreated MEFs from wt and TR4 KO independently.
Replicative senescence has been employed as a cellular model for aging and it occurs primarily in response to oxidative DNA damage (Campisi, J. et al. (2005) Cell, 120: 513-522). Wt MEFs grow well for approximately 2-3 doublings (P2-3) before decreasing in proliferation, and after 8-10 doublings, the cell senescence occurs. In contrast, TR4 KO MEFs proliferation drastically decline after P4 (FIG. 4A). […] The amounts of cellular ROS in MEFs were determined by flow cytometry using DCFH-DA. […] When MEFs were exposed to H2O2 and measured cellular ROS levels, the amounts of fluorescence in both in wt and TR4 KO increased after H2O2 treatment; TR4 KO MEFs accumulated more ROS than wt MEFs. […]
To determine if TR4 is a mediator for non-enzymatic antioxidants, including vitamin C, vitamin E, β-carotene, and selenium, to suppress ROS production in the cells, cellular ROS levels are examined in LMWA-treated MEFs to antagonize oxidative stress. MEFs from TR4 KO and wt are treated with LMWA with/without H2O2 oxidative stress challenge as ROS levels are measured. […]

[2] = system: TR4 KO MEFs; assay: Cellular ROS levels by flow cytometry in TR4 KO MEFs; assay type: cell-based, mouse
Experimental: as §1
Replicative senescence has been employed as a cellular model for aging and it occurs primarily in response to oxidative DNA damage (Campisi, J. et al. (2005) Cell, 120: 513-522). Wt MEFs grow well for approximately 2-3 doublings (P2-3) before decreasing in proliferation, and after 8-10 doublings, the cell senescence occurs. In contrast, TR4 KO MEFs proliferation drastically decline after P4 (FIG. 4A). ROS contribute to cells senescence, and how cells respond to oxidative stress would determine the life span. The amounts of cellular ROS in MEFs were determined by flow cytometry using DCFH-DA. […] When MEFs were exposed to H2O2 and measured cellular ROS levels, the amounts of fluorescence in both in wt and TR4 KO increased after H2O2 treatment; TR4 KO MEFs accumulated more ROS than wt MEFs.
To test if TR4 is involved in low molecular weight antioxidant (LMWA), such as vitamin E anti-oxidant effects, fibroblasts from TR4 KO and wt were challenged with 250 μM H2O2 in the presence of 100 nM α-tocopherol and VES.
To determine if TR4 is a mediator for non-enzymatic antioxidants, including vitamin C, vitamin E, β-carotene, and selenium, to suppress ROS production in the cells, cellular ROS levels are examined in LMWA-treated MEFs to antagonize oxidative stress. MEFs from TR4 KO and wt are treated with LMWA with/without H2O2 oxidative stress challenge as ROS levels are measured. The ones that lose its anti-oxidant activity in KO MEFs but not wt MEFs are the candidates. […] Therefore, TR4 is mediated by some LMWAs, such as vitamin E, to suppress cellular ROS production. Herein, the anti-ROS effects are compared on TR4 KO vs wt MEFs in response to other LMWAs. The focus is on how TR4 regulates vitamin E and the other LMWA that lost anti-ROS response in TR4 KO MEFs.

Cc1c(C)c2c(c(C)c1O)CC[C@@](C)(CCC[C@H](C)CCC[C@H](C)CCCC(C)C)O2 [vitamin E, α-tocopherol]
intrinsic and exogenous ROS production ([1]; wt MEFs, 10^−7 M vitamin E): can reduce
ROS (vitamin E-mediated anti-oxidant effect) ([1]; wt fibroblasts, 250 μM H2O2, 100 nM α-tocopherol and VES): reduction of ROS
intrinsic and exogenous ROS production ([2]; KO MEFs, 10^−7 M vitamin E): not
vitamin E anti-ROS effects (relative ROS levels) ([2]; TR4KO MEFs, 200 μM H2O2 for 30 min, 100 nM α-tocopherol): loss of vitamin E anti-ROS effects
ROS (vitamin E-mediated anti-oxidant effect) ([2]; TR4 KO fibroblasts, 250 μM H2O2, 100 nM α-tocopherol and VES): lost the vitamin E-mediated anti-oxidant effect
